How the values were obtained:
Human recombinant COX-2 = target: T1, Human recombinant COX-2 (Homo sapiens, UniProt P35354); test: spectrophotometric TMPD assay, COX-2; format: biochemical; conditions: 15 min preincubation at 25° C., read-out: Human recombinant COX-2 IC50 (μM) ± S.E.M.
T1 construct: purchased Cayman Chemical, Ann Arbor, USA 60122
T1 sequence (P35354 18-604): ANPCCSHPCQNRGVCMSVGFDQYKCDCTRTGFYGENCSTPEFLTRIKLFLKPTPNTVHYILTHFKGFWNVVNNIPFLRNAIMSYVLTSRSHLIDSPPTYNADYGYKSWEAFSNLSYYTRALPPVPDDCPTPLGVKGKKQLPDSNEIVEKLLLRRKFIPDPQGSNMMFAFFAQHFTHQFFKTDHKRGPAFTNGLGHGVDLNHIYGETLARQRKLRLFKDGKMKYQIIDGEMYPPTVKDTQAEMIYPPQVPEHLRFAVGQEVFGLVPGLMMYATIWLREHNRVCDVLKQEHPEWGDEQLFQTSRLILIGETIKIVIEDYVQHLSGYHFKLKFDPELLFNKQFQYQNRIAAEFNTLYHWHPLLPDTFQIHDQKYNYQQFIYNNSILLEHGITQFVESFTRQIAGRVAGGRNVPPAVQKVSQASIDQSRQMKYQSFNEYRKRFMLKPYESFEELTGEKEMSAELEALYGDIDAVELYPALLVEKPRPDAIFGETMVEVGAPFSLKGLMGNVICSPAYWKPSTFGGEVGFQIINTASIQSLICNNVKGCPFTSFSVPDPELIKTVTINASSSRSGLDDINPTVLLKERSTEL
Protocol: The Human recombinant COX-2 and sheep COX-1 activity were determined by spectrophotometric TMPD assay (K. Gierse, S. D. Hauser, D. P. Creely, C. M. Koboldt, S. H. Rangwala, P. C. Isakson and K. Seibert: Expression and selective inhibition of the constitutive and inducible forms of human cyclo-oxygenase Biochem. J. 305: 479-484 (1995)).
The Human recombinant COX-2 and sheep COX-1 activity were measured by spectrophotometric assay based on oxidation of N,N,N′,N′,-tetramethyl-p-phenylenediamine (TMPD). During the reduction of the prostaglandine G2 (PGG2) to prostaglandine endoperoxid H2 (PGH2), the TMPD is being oxidated to a colour product, which can be measured by spectrophotometer at 610 nm.
4 μl of solution of inhibitors in different concentrations was added to the 156 μl of reaction mixture (100 mM sodium phosphate buffer, pH:6.5, 1 μM hematin, 1 mg/ml gelatine). Afterwards 20 μl solution of 50 unit human recombinant COX-2 enzym or 20 μl of 50 unit sheep COX-1 enzym (Cayman Chemical, Ann Arbor, USA, cat no.: 60122/COX-2/, cat. no.: 60100/COX-1/) was added. The incubation mixture: was preincubated for 15 minutes at 25° C. in a spectrophotometric 96-well plate reader (Labsystem iEMS Reader MF). Following this, the mixture of 20 μl 1 mM arachidonic acid and 1 mM TMPD solution were added. It was shaken for 10 second and the absorbance was measured at 610 nm.

[1] = system: carrageenan induced inflammatory hyperalgesia; test: Carrageenan induced inflammatory hyperalgesia (Randall-Selitto), chronic model; format: in vivo, male SPRD rats; conditions: 30 mg/kg p.o.
Protocol: Edema was induced by injection of Carrageenan (CA) into plantar surface of right hind paw. Male SPRD rats (weighing 140-190 g) were used n=6-8/group). Then the mechanical pain threshold of the inflamed hind paw was determined with an analgesimeter ((Ugo Basile, type: 37215).
This assay monitors the decrease of the pain threshold, and the time depending changing of the pain by mechanical pain stimulus. Analgesics can increase the pain threshold of the inflamed hinds and this effect is in terms of percentage of reversal.
Untreated right hind paw was compressed with a progressively increasing pressure. The pressure was recorded (in grams) when the animal first vocalized or made a vigorous attempt to remove the paw. It was determined to baseline threshold of the untreated paw. (average: 80-110 g). After it the animals were treated with carrageenan. After the treatment the edema and the threshold were checked in a given times. […] (Average of inflammation induced pain threshold was 20-25 g, this means 65-80% decrease related to the baseline.)
The chronic phase of the inflammantion and the decreasing of the threshold were induced by higher dose of CA. Inflammation induced threshold decreasing was measured 24 hours after the CA injection (150 μl of 2% solution). ) After it the animals were treated with test compounds and valdecoxib (30-30 mg/kg p.o.). Change in the threshold was checked at 1 h, 2 h, and 3 h following drug administration. In both model used control groups were treated orally only with solvents at the time of treatments. In both protocol the effects of the test compounds were calculated in percentage reversal of mechanical hiperalgesia: [formula] • T3h: In acute model, the threshold in the control group at 3 h after the CA injection (in gram) • T24h: In chronic model, the threshold in the control group at 24 h after the CA injection (in gram) • T0h: The threshold before the CA injection (in gram) • TXh In acute model, at 3h after the CA injection • TXh=In chronic model, at 25 h, 26 h, 27 h after the CA injection

## N-hydroxi-4-(3-phenyl-5-methyl-isoxazole-4-yl)-benzenesulfonamide monohydrate [example 1]
Human recombinant COX-2
  IC50: 1.1 ± 0.3 µM
[1]; 1 hour
  Analgesic effect in % after p.o. treatment: 57.8%
[1]; 2 hours
  Analgesic effect in % after p.o. treatment: 63.9%
[1]; 3 hours
  Analgesic effect in % after p.o. treatment: 42.0%
